Assay results as given in article PMC4729137, “Functional analysis of androgen receptor mutations that confer anti-androgen resistance identified in circulating cell-free DNA from prostate cancer patients” (Genome Biology, 2016).
Substitutions are numbered along the chain they refer to.

Columns and labels:
[1] = target: T1, T878A-AR (Homo sapiens, UniProt P10275, T878A); format: cell-based; design: Full-length human AR (WT-AR) was encoded on a pcDNA3.1 expression plasmid; expressed in transfected cells; host or cells: PC3 cells; conditions: AR mutant T878A; transfected PC3 cells; 0.1 nM R1881; drug 0 to 50 μM
T1 sequence (P10275 1-920 T878A): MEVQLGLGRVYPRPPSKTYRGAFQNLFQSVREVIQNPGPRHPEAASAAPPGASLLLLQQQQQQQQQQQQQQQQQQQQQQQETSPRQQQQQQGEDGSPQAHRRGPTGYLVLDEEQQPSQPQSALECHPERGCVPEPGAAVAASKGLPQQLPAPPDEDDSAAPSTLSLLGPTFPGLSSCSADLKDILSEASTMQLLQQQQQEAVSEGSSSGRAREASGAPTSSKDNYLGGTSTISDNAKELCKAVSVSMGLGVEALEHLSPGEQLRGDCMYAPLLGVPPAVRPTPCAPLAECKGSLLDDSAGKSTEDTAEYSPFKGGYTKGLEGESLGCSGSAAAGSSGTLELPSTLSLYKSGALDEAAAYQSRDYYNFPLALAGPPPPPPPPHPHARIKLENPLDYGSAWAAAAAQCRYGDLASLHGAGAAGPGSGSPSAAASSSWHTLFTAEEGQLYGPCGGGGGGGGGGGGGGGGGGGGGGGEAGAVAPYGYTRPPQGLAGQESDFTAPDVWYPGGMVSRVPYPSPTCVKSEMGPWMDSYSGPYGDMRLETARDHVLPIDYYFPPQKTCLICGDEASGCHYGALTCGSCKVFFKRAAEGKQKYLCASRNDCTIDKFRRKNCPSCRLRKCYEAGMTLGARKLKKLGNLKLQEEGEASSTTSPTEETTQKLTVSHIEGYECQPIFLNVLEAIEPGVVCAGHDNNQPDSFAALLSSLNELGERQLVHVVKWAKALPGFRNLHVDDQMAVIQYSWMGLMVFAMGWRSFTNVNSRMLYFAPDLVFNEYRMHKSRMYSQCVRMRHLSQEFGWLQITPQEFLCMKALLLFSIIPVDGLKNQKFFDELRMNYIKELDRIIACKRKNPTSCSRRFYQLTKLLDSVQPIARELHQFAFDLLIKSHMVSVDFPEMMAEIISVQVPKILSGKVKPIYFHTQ
Excerpt: Full-length human AR (WT-AR) was encoded on a pcDNA3.1 expression plasmid (Life technologies). The LBD point mutations (single and multiple) were generated using the QuikChange II Site-Directed Mutagenesis Kit (Agilent Technologies) as per manufacturer’s instructions using WT-AR as the template. The mutagenic oligonucleotide primers were designed individually with the desired mutation in the middle of the primer with approximately 10 to 15 bases of correct sequence on both sides.
PC3 cells were seeded and transfected as described above. […] A non-stimulated/no R1881 control was used. After 24 h, cells were lysed and AR-dependent luciferase activity was quantified. Each concentration was assayed in quadruplicate n = 4, with a biological replicate of n = 3. Results were averaged and normalized by expressing them as a percentage of WT AR activity.

[2] = target: T1, T878A-AR; assay: cell-based
[3] = target: T2, WT-AR (Homo sapiens, UniProt P10275); assay: cell-based
T2 sequence (P10275 1-920): T1 sequence (P10275 1-920 T878A) with A878T

| Compound | Agonist response to treatment [1] | EC50 [2] | EC50 [3] |
| --- | --- | --- | --- |
| CC(C)(O)C(=O)Nc1ccc([N+](=O)[O-])c(C(F)(F)F)c1 [Hydroxyflutamide, hydroxyflutamide] | Partial | – | – |
| C[C@]12CCC(=O)C=C1CC[C@@H]1[C@@H]2[C@@H](O)C[C@@]2(C)[C@H]1CC[C@]2(O)C(=O)CO [hydrocortisone] | – | > 500 nM | > 500 nM |
